This experiment concerns ASPC-1 cells. Kind of experiment: MTT cell growth assay, ASPC-1 cells (Example 1). In kind it is cell-based, human. The text has this: Cell culture and proliferation assay: The following materials are purchased: FCS, RPMI and Dulbecco's modified Eagle medium (DMEM), trypsin-EDTA solution, penicillin-streptomycin solution from Biochrom K G (Berlin, Germany). All the other reagents are from Sigma Chemical Co. (St. Louis, Mo., USA). ASPC-1, MIA PaCA-2, human pancreatic cell lines are obtained from American Type Culture Collection (Rockville, Md.). Compound I is kindly provided by Novartis Pharma AG (Basel, Switzerland). T3M4 human pancreatic cell lines are a gift from Dr. R. S. Metzgar (Durham, N.C., USA). TAKA-1 immortalized Syrian golden hamster pancreatic ductal cells are a gift from Prof. P. Pour (University of Nebraska, Omaha, Nebr., USA). Human pancreatic cancer cell lines are routinely grown in DMEM (MIA-PaCA-2) or RPMI (ASPC-1, T3M4) supplemented with 10% FCS, 100 U/ml penicillin and 100 μg/ml streptomycin (complete medium).
TAKA-1 cells are grown in RPMI supplemented with 10% FCS, 100 U/ml penicillin and 100 μg/ml streptomycin. Cells are seeded overnight at a density of 5000 cells/well in 96-well plates and the proliferation assay is performed as described above. […] Cellular MTT is solubilized with acidic isopropanol and the optical density is measured at 570 nm using a plate reader (Dynatech MR 7000). […]
Statistical analysis: Results are expressed as mean±SD. […]
(In general: Formazan colour is commonly taken as a measure of viable cells.)

Several values for one entry are separate records, joined by “and”; a condition that tells them apart may be missing. Equal entries are not always repeated.

The inhibition is how much of the control response was suppressed.

Take `Cc1ccc(NC(=O)c2ccc(CN3CCN(C)CC3)cc2)cc1Nc1nccc(-c2cccnc2)n1` [Compound I]: where the note is “Aspc-1, 5 μM Compound I, 72 h, 5 µM”, the “Percent growth inhibition by comparison with control cell growth” value was −12.9% and −4.8% and −3.7%. For the same molecule, the inhibition at 75 µM (Homo sapiens, ASPC1, 72 h, Aspc-1, 75 μM Compound I, read-out: Percent growth inhibition by comparison with control cell growth) stood at 85.6%.

These data come from patent US20060167006A1, “Method of treatment” (priority 2003, published 2006).
